Reference: PMC5805526, “ZB716, a steroidal selective estrogen receptor degrader (SERD), is orally efficacious in blocking tumor growth in mouse xenograft models” (Oncotarget, 2018)
Several values for one entry are separate records, joined by “and”; a condition that tells them apart may be missing. Identical values can stand only once. Entries after “also recorded” stand apart in the source; their conditions may differ. Like-named read-outs stand apart in the source and are kept apart here.

What was measured:
[1] = test system: MCF-7 breast cancer cells; assay: MCF-7 cell growth inhibition; type: cell-based; conditions: Homo sapiens, MCF7, 120 h; 5 days treatment, cell count vs DMSO
Description: At the end of treatment, surviving cells were counted and normalized to control cells that were treated with vehicle (DMSO) only. (B) IC50 values were obtained by deriving logarithmic curves from the %cell survival vs. treatment dose plot.

[2] = test system: T47D/Y537S breast cancer cells; assay: T47D/Y537S ESR1 mutant cell growth inhibition; type: cell-based; conditions: Homo sapiens, 120 h, 5 days treatment
From the text: Wild-type ESR1, the Y537S ESR1 mutant were fused to a FLAG tag at their C-termini and cloned into the lentiviral vector pFLRu-FH [30]. Y537S mutation was first introduced into ESR1 using the QuikChange II XL Site-Directed Mutagenesis Kit (Agilent) with an ESR1-encoding plasmid (Accession number NM_000125.1, GeneCopoeia Inc.) as the template. […] To make lentiviral particles, pFLRu-FH vector DNAs (encoding ESR1(wt) and ESR1(Y537S)) were cotransfected with the packaging plasmids into HEK293T cells using Fugene 6 (Roche). At 48 hours post transfection, culture media containing different viruses were added to T47D cells in the presence of polybrene followed by 3-day puromycin selection for stable expression.
Viable cell numbers were counted with a Z Series Coulter Counter instrument (Beckman-Coulter) following manufacturer's instructions. […] IC50 values were obtained from dose-response curves for all treatments.

mutant ER (Y537S ESR1) [3] = biological target: T1, mutant ER (Y537S ESR1) (Homo sapiens, UniProt P03372, Y537S); assay: ER downregulation in T47D/Y537S cells (Wes Simple Western); type: cell-based; conditions: four hours treatment, ERα normalized to actin; read-out: IC50, ER downregulation in T47D/Y537S cells
T1 construct: added to the C terminus of full-length wild-type and mutant (Y537S) ESR1 by PCR amplification; expressed in transfected cells; host or cells: T47D, lentiviral transduction with pFLRu-FH and puromycin selection
T1 sequence (P03372 1-595 Y537S): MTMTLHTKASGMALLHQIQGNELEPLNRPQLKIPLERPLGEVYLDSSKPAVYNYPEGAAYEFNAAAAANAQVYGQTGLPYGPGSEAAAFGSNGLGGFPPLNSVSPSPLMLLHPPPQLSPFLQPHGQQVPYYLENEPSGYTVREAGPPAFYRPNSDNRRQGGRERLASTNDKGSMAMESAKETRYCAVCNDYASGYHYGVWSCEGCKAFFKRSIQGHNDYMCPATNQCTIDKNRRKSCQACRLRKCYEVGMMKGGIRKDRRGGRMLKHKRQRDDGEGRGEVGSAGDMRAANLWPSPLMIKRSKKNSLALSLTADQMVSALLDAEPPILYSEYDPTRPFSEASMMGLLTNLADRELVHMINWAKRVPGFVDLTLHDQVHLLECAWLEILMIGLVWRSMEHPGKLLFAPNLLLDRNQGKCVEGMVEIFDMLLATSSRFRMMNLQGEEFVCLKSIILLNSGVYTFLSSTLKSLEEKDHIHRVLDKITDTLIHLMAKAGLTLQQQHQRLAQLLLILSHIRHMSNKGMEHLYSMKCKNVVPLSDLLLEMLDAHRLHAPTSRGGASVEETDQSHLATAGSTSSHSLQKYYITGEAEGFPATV
From the text: (§1) IC50 values were obtained from dose-response curves for all treatments.

mutant ER (Y537S ESR1) [4] = assay: as above; type: cell-based; conditions: T47D/Y537S
From the text: as §1

[5] = test system: MCF-7 human breast cancer xenograft; assay: Efficacy in MCF-7 xenograft tumor model; type: in vivo, Nu/Nu mice; conditions: ZB716 at both 10 mg/kg and 30 mg/kg by oral gavage, three weeks
Description: Four to six weeks old female ovariectomized Nu/Nu mice were purchased from Charles River Laboratories (Wilmington, MA). MCF-7 cells were cultured and harvested in the exponential growth phase using a PBS/EDTA solution. The animals were injected bilaterally in the mammary fat pad (MFP) with 5×10^6 viable cells suspended in 50 μL sterile PBS mixed with 100 μL Matrigel (reduced factor; BD Biosciences, Bed- ford, MA). 17b-Estradiol pellets (0.72 mg, 60 day release; Innovative Research of America, Sarasota, FL) were implanted subcutaneously in the lateral area of the neck using a precision trochar (10 gages) at the time of cell injection. Tumors were allowed to form and at day 15 post cell injection mice. […] Tumor sizes were monitored and recorded every other day for three weeks of treatment duration.

[6] = test system: TM00386 PDX ER+/PR+/HER2- invasive ductal carcinoma; assay: Efficacy in patient derived xenograft (PDX) tumor model; type: in vivo, NOD scid gamma (NSG) mice
From the text: Tumor sizes were monitored and recorded every other day for three weeks of treatment duration.

[7] = Pharmacokinetic study in rats, single oral dose; type: in vivo, Sprague-Dawley rats; conditions: rat; for concentration at 1 h / concentration at 3 h / concentration at 6 h / concentration at 8 h / concentration at 24 h: oral, read-out: Rat plasma concentration of ZB716 after a single oral dose
Description: Female Sprague-Dawley rats, weighing between 350 and 400 g (Charles River Laboratories, Portage, MI) were used for the pharmacokinetic study on ZB716. Rats were given oral gavage containing 5% dimethyl sulfoxide (DMSO), 40% polyethylene glycol 400, 55% saline-dissolved ZB716, at doses ranging from 1 mg/kg to 20 mg/kg. After drug administration, blood samples were collected from the lateral tail vein of the rat at 1, 3, 6, 8, 24 h. Rat blood was collected with a capillary into 1.5 mL microcentrifuge tubes containing 0.01 mL of 10 % EDTA anticoagulant. Plasma was then separated from cell pellets by centrifugation in a refrigerated centrifuge at 4°C and transferred to a separate tube. Plasma samples were frozen at −80°C until analysis.
The plasma samples of 100 μL each were processed for analysis by a TSQ UPLC-MS/MS system. Aliquots of 10 μL of 0.5 ng/μl E-Tamoxifen-2C^13, N^15, 200 μL methanol, and 400 μl chloroform were added to the plasma in a 1.5 mL centrifuge tube in sequence. The sample was vortexed and stored at −20°C for 4 hours, followed by sonication in a Branson B3510MT Ultrasonic Cleaners for 30 min and centrifuged at 12000 RPM on a Heraeus Fresco 21 Refrigerated Micro Centrifuge from Thermo Fisher Scientific for 10 min. The supernatant was dried with a nitrogen gas flow and suspended in 100 μL methanol. Aliquots of 10 μL of the above processed samples were injected into a TSQ Vantage mass spectrometer connected with a heated electrospray ionization probe and a Dionex Ultimat 3000 UHPLC with a Hypersil gold column (50×2.1 mm). The probe setting and front mass spectrometer setting were controlled as follows: spray voltage 3200 voltage, auxiliary gas 10psi, vaporizer temperature 365°C, capillary temperature 300°C, sheath gas 30psi, S-lens RF amplitude 51 voltage. The flow gradient was started with initial 30% mobile phase A of water with 0.05% formic acid to 1 min, to 100% mobile phase B of acetonitrile with 0.05% formic acid at 8 min, and return to 30% mobile phase A at 13 min.

ERα = test system: ERα; set-up: method as in PMID 27529700; conditions: read-out: binding affinity to ERα, EC50; cited from earlier work
[8] = female, Sprague-Dawley, plasma, 1 mg/kg
[9] = female, Sprague-Dawley, plasma, 5 mg/kg
[10] = female, Sprague-Dawley, plasma, 10 mg/kg
[11] = female, Sprague-Dawley, plasma, 20 mg/kg

C[C@]12CC[C@@H]3c4ccc(B(O)O)cc4C[C@@H](CCCCCCCCC[S+]([O-])CCCC(F)(F)C(F)(F)F)[C@H]3[C@@H]1CC[C@@H]2O (stereo partly shown) [ZB716]
IC50 [1]: 3.2 nM
IC50 [2]: 24.4 nM
DC50 (mutant ER (Y537S ESR1) [3]): 24 nM
drug concentration for 50% downregulation of mutant ER relative to wild type (mutant ER (Y537S ESR1) [4]): about 10 times
tumor growth in MCF-7 xenograft [5]: complete blockage of tumor growth
PDX tumor growth ([6]; ZB716 5 mg/kg PO daily): as effectively as fulvestrant treatment
PDX tumor growth inhibition ([6]; ZB716 20 mg/kg PO daily): greatest effect on tumor growth inhibition
PDX tumor growth ([6]; ZB716 at both doses (5 and 20 mg/kg PO daily)): effective in blocking tumor growth; also recorded: regression of tumor comparable to the fulvestrant group
concentration at 1 h [7, 8]: 14.8 ± 6.51 ng/mL
concentration at 3 h [7, 8]: 9.23 ± 2.33 ng/mL
concentration at 6 h [7, 8]: 4.7 ± 1.66 ng/mL
concentration at 8 h [7, 8]: 4.42 ± 2.38 ng/mL
concentration at 24 h [7, 8]: 1.36 ± 1.42 ng/mL
concentration at 1 h [7, 9]: 46.5 ± 4.81 ng/mL
concentration at 3 h [7, 9]: 23.4 ± 2.8 ng/mL
concentration at 6 h [7, 9]: 15.9 ± 2.03 ng/mL
concentration at 8 h [7, 9]: 11.4 ± 0.52 ng/mL
concentration at 24 h [7, 9]: 9.37 ± 1.24 ng/mL
concentration at 1 h [7, 10]: 218 ± 27.8 ng/mL
concentration at 3 h [7, 10]: 93.6 ± 21.8 ng/mL
concentration at 6 h [7, 10]: 62 ± 14.9 ng/mL
concentration at 8 h [7, 10]: 60.7 ± 13.9 ng/mL
concentration at 24 h [7, 10]: 33.1 ± 10.6 ng/mL
concentration at 1 h [7, 11]: 1040 ± 153 ng/mL
concentration at 3 h [7, 11]: 671 ± 125 ng/mL
concentration at 6 h [7, 11]: 371 ± 111 ng/mL
concentration at 8 h [7, 11]: 300 ± 118 ng/mL
concentration at 24 h [7, 11]: 98.5 ± 36.1 ng/mL
Tmax ([7]; female, Sprague-Dawley, plasma, all four oral doses (1, 5, 10, 20 mg/kg), read-out: time of peak concentration in rat plasma): 1 h
peak plasma concentration ([7]; 20 mg/kg oral, 20 mg/kg): over 1000 ng/mL and > 1.6 μM
EC50 (ERα): 4.1 nM
